Experimental data as given in PMC12697872, “Rethinking the AI Paradigm for Solubility Prediction of Drug‑Like Compounds with Dual‐Perspective Modeling and Experimental Validation” (Advanced Science, 2025).
Read-outs that look alike come from different tables or passages of the source.

Tests used:
[1] = cited from earlier work
[2] = CASR-2 dataset, aqueous solubility class 0-6; cited from earlier work
[3] = cited from earlier work; for LogS(mol/L): SC2-2 dataset (Second Solubility Challenge, loose subset), aqueous solubility; for Class: SC2-2 dataset, aqueous solubility class 0-6
[4] = 1H NMR on the saturated aqueous solution; assay type: physicochemical
Procedure: Each compound was tested in triplicate to ensure accuracy.

SMILES	LogS(mol/L) [3] [mol/L]	Class [3]	further results
[2H]c1c([2H])c([2H])c2c(c1[2H])C([2H])([2H])C([2H])([2H])C([2H])([2H])C2([2H])[2H]	–	–	LogS ([1]; CASR-1 curated training data, aqueous, 25 ± 2 °C): -0.8582 mol/L; LogS(mol/L) ([1]; sheet Uncurated data, compiled records): -0.8582 mol/L; Class [2]: 3 (Sparingly soluble (3))
CCN(CC)CCOC(=O)c1ccc(N)cc1 [CCN(CC)CCOC(=O)c1ccc(N)cc1]	-2.3	4 (Slightly soluble (4))	–
CCc1ccc(CCOc2ccc(CC3SC(=O)NC3=O)cc2)nc1 (centres unmarked) [CCc1ccc(CCOc2ccc(CC3SC(=O)NC3=O)cc2)nc1]	-6.2	6 (Practically insoluble or insoluble (6))	–
COc1cc(NS(=O)(=O)c2ccc(N)cc2)nc(OC)n1 [COc1cc(NS(=O)(=O)c2ccc(N)cc2)nc(OC)n1]	-3.74	6 (Practically insoluble or insoluble (6))	–
O=C(O)c1cc(-c2ccc(F)cc2F)ccc1O [O=C(O)c1cc(-c2ccc(F)cc2F)ccc1O]	-4.99	6 (Practically insoluble or insoluble (6))	–
O=c1[nH]cnc2c1ncn2[C@H]1CC[C@@H](CO)O1 [O=c1[nH]cnc2c1ncn2[C@H]1CC[C@@H](CO)O1]	–	3 (Sparingly soluble (3))	–
c1ccc2[nH]c(-c3cscn3)nc2c1 [c1ccc2[nH]c(-c3cscn3)nc2c1]	–	6 (Practically insoluble or insoluble (6))	–
CCCC(=O)OC[C@@H](OC(=O)CCC)[C@@H](OC(=O)CCC)[C@H](Cn1c2nc(=O)[nH]c(=O)c-2nc2cc(C)c(C)cc21)OC(=O)CCC [riboflavin tetrabutyrate]	–	–	Solute in saturated aqueous solution by 1H NMR [4]: no existence of solute in the solution
